The target of the test is TNKS1 (Homo sapiens, UniProt O95271). Put plainly: TNKS1/PARP Biochemical Assay (TNKS1).

pIC50: −log10 of the molar value. “And” between values parts separate entries of the source, which are not always exact repeats. Identical values can stand only once.

As a reminder, the pIC50 is −log10 of the IC50, conventionally taken in molar units.

`Cc1cccc2c(=O)[nH]c(-c3ccc(CN4CCN(C(=O)OC(C)(C)C)CC4)nc3)cc12` [IQ-071] showed a pIC50 of more than 6.30.
Then `Cc1ccc(F)c2c(=O)[nH]c(-c3ccc(C(=O)N4CCN(C)CC4)cc3)cc12` [IQ-189], with more than 7.70; and `Cc1cccc2c(=O)[nH]c(-c3ccc(C(=O)N4CCN(C5CC5)CC4)cc3)cc12` [IQ-105], with more than 7.30; and `Cc1cc(F)cc2c(=O)[nH]c(-c3ccc(C(=O)N(C)CC4(C)CCN(C)C4)cc3)cc12` (stereo not shown) [IQ-210], with more than 7.70.
Take `Cc1cccc2c(=O)[nH]c(-c3ccc(CN4CCNCC4)c(F)c3)cc12` [IQ-059]: the pIC50 was more than 7.30.
Molecule `Cc1cccc2c(=O)[nH]c(-c3ccc(N4CCNCC4)nc3)cc12` [IQ-028-1] had a pIC50 of more than 7.70.
`Cc1cccc2c(=O)[nH]c(-c3ccc(CC(=O)N4CCN(C)CC4)cc3)cc12` [IQ-175] showed a pIC50 of more than 7.70.
`Cc1cc(F)cc2c(=O)[nH]c(-c3ccc(C(=O)N(C)C4CCNCC4)cc3)cc12` [IQ-213] gave a pIC50 of more than 7.70.
`Cc1cccc2c(=O)[nH]c(-c3ccc(CN4CCNC(C)C4)cc3)cc12` (stereo not shown) [IQ-084-3] gave a pIC50 of more than 7.30.
The molecule `Cc1ccc(S(=O)(=O)N2CCN(C(C)(C)c3ccc(-c4cc5c(C)cccc5c(=O)[nH]4)cc3)CC2)cc1` [IQ-148] gave a negative logarithm of the IC50 (pIC50) of more than 6.30.
For the molecule `Cc1cccc2c(=O)[nH]c(-c3ccc(CN4CCC5(CCN(C)C5)C4)cc3)cc12` (stereo not shown) [IQ-088], the pIC50 is more than 7.70.
Then `Cc1cc(F)cc2c(=O)[nH]c(-c3ccc(C(=O)N(C)C4CCN(C)C4)cc3)cc12` (single isomer, unassigned) [IQ-207-1], with more than 7.30; and `Cc1cccc2c(=O)[nH]c(-c3ccc(CN4CCNCC4C)cc3)cc12` (single isomer, unassigned) [IQ-051-2], with more than 7.30; and `CN1CCC(N(C)S(=O)(=O)c2ccc(-c3cc4c(Cl)cccc4c(=O)[nH]3)cc2)CC1` [IQ-110], with more than 6.30.
In turn, `COCCN(CCOC)C(=O)c1ccc(-c2cc3c(C)cccc3c(=O)[nH]2)cc1` [IQ-187] had a pIC50 of more than 7.30.
As for `Cc1cccc2c(=O)[nH]c(-c3ccc(CN4CCN(CC5CC5)CC4)nc3)cc12` [IQ-161], the pIC50 was more than 6.30.
In the case of `Cc1cccc2c(=O)[nH]c(-c3ccc(CN4CC(O)C4)c(F)c3)cc12` [IQ-169], the pIC50 is more than 7.30.
`Cc1cccc2c(=O)[nH]c(-c3ccc(OCCN4CCCC4)cc3)cc12` [IQ-134] showed a pIC50 of more than 7.30.
Molecule `CN1CCN(C(=O)c2ccc(-c3cc4c(Cl)cccc4c(=O)[nH]3)cc2)CC1` [IQ-101] had a pIC50 of more than 7.30.
`CNC1CN(Cc2ccc(-c3cc4c(C)cccc4c(=O)[nH]3)cc2)C1` [IQ-177] had a negative logarithm of the IC50 (pIC50) of more than 7.70.
Then `Cc1cccc2c(=O)[nH]c(-c3ccc(C(=O)N4CC(N(C)C)C4)cc3)cc12` [IQ-202], with more than 6.30; and `Cc1cc(F)cc2c(=O)[nH]c(-c3ccc(C(=O)N(C)C4CCN(C)C4)cc3)cc12` (stereo not shown) [IQ-197], with more than 7.70.
Molecule `Cc1cccc2c(=O)[nH]c(-c3ccc(CN4CCN(C(=O)OC(C)(C)C)C(C)C4)cc3)cc12` (stereo not shown) [IQ-143] had a negative-log IC50 (pIC50) of more than 6.30.
Then `Cc1cccc2c(=O)[nH]c(-c3ccc(S(=O)(=O)N4CCC(N(C)C)CC4)cc3)cc12` [IQ-125], with more than 7.70.
As for `CN1CCN(S(=O)(=O)c2ccc(-c3cc4c(Cl)cccc4c(=O)[nH]3)cc2)CC1` [IQ-122], the pIC50 was more than 6.30.
Take `Cc1cccc2c(=O)[nH]c(-c3ccc(N4CCC(N(C)C)C4)nc3)cc12` (stereo not shown) [IQ-008]: the negative-log IC50 (pIC50) is more than 7.70.
Regarding `Cc1cccc2c(=O)[nH]c(-c3ccc(C(C)(C)N4CCNCC4)cc3)cc12` [IQ-075, 5-Methyl-3-[(4-(1-methyl-1-piperazin-1-yl]-ethyl)-phenyl]-2H-isoquinolin-1-one], the pIC50 is more than 6.30.
Consider `Cc1cc(F)cc2c(=O)[nH]c(-c3ccc(C(=O)N(C)C4CCN(C)C4)cc3)cc12` (single isomer, unassigned) [IQ-207-2], for which the pIC50 is more than 7.30.
With `Cc1cc(F)cc2c(=O)[nH]c(-c3ccc(C(=O)N(C)C4CN(C)C4)cc3)cc12` [IQ-201], the pIC50 was more than 7.30.
As to `Cc1cccc2c(=O)[nH]c(-c3ccc(S(=O)(=O)N4CCNCC4)cc3)cc12` [IQ-123], the pIC50 is more than 7.70.
Turning to `Cc1cccc2c(=O)[nH]c(-c3ccc(S(=O)(=O)N(C)CC4CCNCC4)cc3)cc12` [IQ-115], the negative-log IC50 (pIC50) is more than 7.70.
Turning to `Cc1cccc2c(=O)[nH]c(-c3ccc(CN4CCN5CCCC5C4)cc3)cc12` (stereo not shown) [IQ-087], the pIC50 was more than 7.30.
`CN(C)C1CCN(c2ccc(-c3cc4c(Cl)cccc4c(=O)[nH]3)cn2)CC1` [IQ-007] had a pIC50 of more than 7.30.
`CN1CCC(CN(C)S(=O)(=O)c2ccc(-c3cc4c(Cl)cccc4c(=O)[nH]3)cc2)CC1` [IQ-112] had a pIC50 of more than 7.30.
`Cc1cccc2c(=O)[nH]c(-c3ccc(C(=O)N(C)CC4CCOCC4)cc3)cc12` [IQ-097, N-Methyl-4-(5-methyl-1-oxo-1,2-dihydro-isoquinolin-3-yl)-N-(tetrahydro-pyran-4-ylmethyl)-benzamide]: the pIC50 is more than 7.70.
Turning to `Cc1cccc2c(=O)[nH]c(-c3ccc(N4CCNCC4)cc3)cc12` [IQ-016], the pIC50 was > 6.30 and > 7.30 and > 7.70 and 7.92.
Regarding `Cc1cccc2c(=O)[nH]c(-c3ccc(C(=O)N(C)C4CCNCC4)cc3)cc12` [IQ-096, N-Methyl-4-(5-methyl-1-oxo-1,2-dihydro-isoquinolin-3-yl)-N-piperidin-4-yl-benzamide], the pIC50 was more than 7.30.
`Cc1cccc2c(=O)[nH]c(-c3ccc(Cn4cnc5ccccc54)cc3)cc12` [IQ-181] gave a pIC50 of more than 6.30.
In turn, `Cc1cccc2c(=O)[nH]c(-c3ccc(C(=O)N4CCN(C)CC4)cc3)cc12` [IQ-104] had a pIC50 of more than 7.70.
`Cc1cccc2c(=O)[nH]c(-c3ccc(S(=O)(=O)N(C)CCO)cc3)cc12` [IQ-120] had a pIC50 of more than 7.70.
Then `CC(C)(C)OC(=O)N1CCN(c2ccc(-c3cc4c(Cl)cccc4c(=O)[nH]3)cc2)CC1` [IQ-010], with more than 6.30; and `Cc1cccc2c(=O)[nH]c(-c3ccc(CN4CCNCC4)nc3)cc12` [IQ-072], with more than 6.30; and `CN(C)CCOc1ccc(-c2cc3c(C#CCCO)cccc3c(=O)[nH]2)cc1` [IQ-236, 3-[4-(2-Dimethylaminoethoxy)phenyl]-5-(4-hydroxybut-1-ynyl)-2H-isoquinolin-1-one], with more than 6.30.
As to `CN1CCN(Cc2ccc(-c3cc4c(Cl)cccc4c(=O)[nH]3)cc2)C(=O)C1` [IQ-056], the pIC50 was more than 7.30.
As for `Cc1cccc2c(=O)[nH]c(-c3ccc(CN4C[C@H]5CNC[C@H]5C4)cc3)cc12` [IQ-090], the pIC50 is more than 7.30.
The molecule `Cc1cc(F)cc2c(=O)[nH]c(-c3ccc(C(=O)N(C)C4CCCN(C)C4)cc3)cc12` (stereo not shown) [IQ-212] had a negative-log IC50 (pIC50) of more than 7.30.
Then `CN(C)C1CCN(S(=O)(=O)c2ccc(-c3cc4c(Cl)cccc4c(=O)[nH]3)cc2)CC1` [IQ-126], with more than 6.30; and `Cc1cccc2c(=O)[nH]c(-c3ccc(CN4CCCN(C(=O)OC(C)(C)C)CC4)cc3)cc12` [IQ-060], with more than 6.30.
For the molecule `O=c1[nH]c(-c2ccc(CN3CCNCC3)cc2)cc2c(Cl)cccc12` [IQ-083], the pIC50 is more than 7.30.
The molecule `Cc1cccc2c(=O)[nH]c(-c3ccc(S(=O)(=O)N(C)C)cc3)cc12` [IQ-108] had a negative logarithm of the IC50 (pIC50) of more than 7.30.
Then `CN(CC1CCNCC1)S(=O)(=O)c1ccc(-c2cc3c(Cl)cccc3c(=O)[nH]2)cc1` [IQ-116], with more than 7.30; and `Cc1cccc2c(=O)[nH]c(-c3ccc(C(=O)N(C)C4CCN(C(C)C)CC4)cc3)cc12` [IQ-206], with more than 7.30.
In the case of `Cc1cccc2c(=O)[nH]c(-c3cc(F)c(C(=O)N4CC(O)C4)c(F)c3)cc12` [IQ-194], the pIC50 was more than 7.70.
In turn, `Cc1cccc2c(=O)[nH]c(-c3ccc(Cn4ccnc4C)cc3)cc12` [IQ-168] showed a pIC50 of more than 7.70.
`COCC#Cc1cccc2c(=O)[nH]c(-c3ccc(OCCN(C)C)cc3)cc12` [IQ-234] showed a pIC50 of more than 6.30.
For `Cc1cccc2c(=O)[nH]c(-c3ccc(S(=O)(=O)N4CCN(C(=O)OC(C)(C)C)CC4)cc3)cc12` [IQ-140], the pIC50 was more than 6.30.
As for `CC(C)(C)OC(=O)N1CCN(c2ccc(-c3cc4c(Cl)cccc4c(=O)[nH]3)cn2)CC1` [IQ-136], the pIC50 is more than 6.30.
On to `Cc1cccc2c(=O)[nH]c(-c3ccc(CN4CCN(C5CC5)CC4)cc3)cc12` [IQ-050], for which the pIC50 is more than 7.30.
As to `Cc1cccc2c(=O)[nH]c(-c3ccc(CN4CCCN(C)CC4)cc3)cc12` [IQ-065], the pIC50 was more than 7.30.
In turn, `Cc1cccc2c(=O)[nH]c(-c3ccc(CN4CC(O)C4)cc3)cc12` [IQ-167] showed a negative logarithm of the IC50 (pIC50) of more than 7.70.
Turning to `Cc1cccc2c(=O)[nH]c(-c3ccc(CN4CCNCC4C)cc3)cc12` (stereo not shown) [IQ-051-1], the pIC50 is more than 7.70.
Turning to `CC(=O)N1CCN(Cc2ccc(-c3cc4c(C)cccc4c(=O)[nH]3)cc2)CC1` [IQ-055, 3-[4-(4-Acetyl-piperazin-1-ylmethyl)-phenyl]-5-methyl-2H-isoquinolin-1-one], the negative logarithm of the IC50 (pIC50) was more than 7.70.
In the case of `Cc1cccc2c(=O)[nH]c(-c3ccc(C(C)N4CCNCC4)cc3)cc12` (stereo not shown) [IQ-067], the pIC50 was more than 7.30.
As to `Cc1cccc2c(=O)[nH]c(-c3ccc(S(=O)(=O)N(C)CCN(C)C)cc3)cc12` [IQ-117], the pIC50 is more than 7.70.
In turn, `Cc1cccc2c(=O)[nH]c(-c3ccc(C(=O)N(C)CC4CCN(C)CC4)cc3)cc12` [IQ-095, N-Methyl-4-(5-methyl-1-oxo-1,2-dihydro-isoquinolin-3-yl)-N-(1-methyl-piperidin-4-ylmethyl)-benzamide] had a negative-log IC50 (pIC50) of more than 7.30.
The molecule `CN1CCN(C(=O)c2ccc(-c3cc4c(F)cc(F)cc4c(=O)[nH]3)cc2)CC1` [IQ-227] had a pIC50 of more than 7.70.
Then `Cc1cccc2c(=O)[nH]c(-c3ccc(CN4C[C@@H]5CN(C(=O)OC(C)(C)C)C[C@@H]5C4)cc3)cc12` [IQ-089], with more than 6.30; and `Cc1cc(F)cc2c(=O)[nH]c(-c3ccc(C(C)(C)C(=O)N4CC(O)C4)cc3)cc12` [IQ-218], with more than 7.30; and `Cc1cc(F)cc2c(=O)[nH]c(-c3ccc(CN4CCN(C(=O)OC(C)(C)C)CC4)cc3)cc12` [IQ-076], with more than 6.30.
Then `CC(C)(C)OC(=O)N1CCN(Cc2ccc(-c3cc4c(F)cc(F)cc4c(=O)[nH]3)cc2)CC1` [IQ-154], with more than 6.30.

These data come from patent publication US9193689B2, “3-aryl-5-substituted-isoquinolin-1-one compounds and their therapeutic use” (INSTITUTE OF CANCER RESEARCH: ROYAL CANCER HOSPITAL (THE), priority 2012, dated 2015).
